Experimental findings from patent US20130131126A1, “DERIVATIVES OF 1,4-DIHYDROPYRIDINE POSSESSING ANTIVIRAL EFFICACY” (JSC Grindeks, priority 2010, published 2013) are described below.

This experiment concerns influenza virus (H3N2). In words: Antiviral efficacy against influenza virus on MDCK cell line in vitro. It counts as cell-based. The settings on record: MDCK cells infected with influenza virus (H3N2); compound present from 1 hour after infection until end of culture; over a wide concentration range.

Take `COC(=O)C1C(C(=O)OCC(=O)[O-])=C(C)NC(C)=C1C(=O)OCC(=O)[O-].[Na+].[Na+]` [disodium 2,6-dimethyl-1,4-dihydropyridine-4-methoxycarbonyl-3,5-bis-(carbonyloxyacetate)]: the “antiviral efficacy against influenza” value is given as “effective against influenza”. In the case of `CCOC(=O)C1=C(C)NC(C)=C(C(=O)OCC(=O)[O-])C1.[Na+]` [sodium 2,6-dimethyl-3-ethoxycarbonyl-1,4-dihydropyridine-5-carbonyloxyacetate] it was “effective against influenza”; in that of `COC(=O)C1=C(C)NC(C)=C(C(=O)OCC(=O)[O-])C1.[Na+]` [sodium 2,6-dimethyl-3-methoxycarbonyl-1,4-dihydropyridine-5-carbonyloxyacetate], “effective against influenza”.
